Laboratory results reported in PubChem BioAssay (NCI).
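Cultured in 96-well plates, cells were exposed to test compound for 48 hours across five concentrations. TGI marks complete inhibition of growth.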 Where a SMILES comes first, the peptide text is derived from it. [ ]: non-standard residue; d: D form. The star is where a group is joined. NMeV = CN[C@H](C(=O)O)C(C)C; X29 = COc1ccc(CN*)c(OC)c1; Octanoyl = CCCCCCCC(=O)*; dNMeA = CN[C@H](C)C(=O)O

How the values were obtained:
Assay in all cases: NCI tumour cell line growth inhibition, 48 h
CAKI-1 renal = test system: CAKI-1 renal
COLO 205 colon = test system: COLO 205 colon
HCC-2998 colon = test system: HCC-2998 colon
HCT-15 colon = test system: HCT-15 colon
HOP-62 NSCLC = test system: HOP-62 NSCLC
IGROV1 ovarian = test system: IGROV1 ovarian
MDA-N = test system: MDA-N
OVCAR-5 ovarian = test system: OVCAR-5 ovarian
RPMI-8226 leukemia = test system: RPMI-8226 leukemia
RXF 393 renal = test system: RXF 393 renal
SF-268 CNS = test system: SF-268 CNS
SK-MEL-2 melanoma = test system: SK-MEL-2 melanoma
U251 CNS = test system: U251 CNS
UACC-257 melanoma = test system: UACC-257 melanoma
UACC-62 melanoma = test system: UACC-62 melanoma
LOX IMVI melanoma = test system: LOX IMVI melanoma
NCI-H460 lung = test system: NCI-H460 lung
SNB-19 CNS = test system: SNB-19 CNS

Row | Compound | TGI (CAKI-1 renal) | TGI (COLO 205 colon) | TGI (HCC-2998 colon) | TGI (HCT-15 colon) | TGI (HOP-62 NSCLC) | TGI (IGROV1 ovarian) | TGI (MDA-N) | TGI (OVCAR-5 ovarian) | TGI (RPMI-8226 leukemia) | TGI (RXF 393 renal) | TGI (SF-268 CNS) | TGI (SK-MEL-2 melanoma) | TGI (U251 CNS) | TGI (UACC-257 melanoma) | TGI (UACC-62 melanoma) | TGI (LOX IMVI melanoma) | TGI (NCI-H460 lung) | TGI (SNB-19 CNS)
1 | CN1c2ccccc2C(=O)NC12CCN(CCCC(=O)c1ccc(F)cc1)CC2 | > 100 µM | 30.4 µM | 40.3 µM | > 100 µM | > 100 µM | > 100 µM | > 100 µM | > 100 µM | > 100 µM | > 100 µM | 88.9 µM | > 100 µM | > 100 µM | 87.6 µM | > 100 µM |  |  | 
2 | Cc1n[nH]c(=O)n1N1C(=O)CCCC1=O | > 100 µM | > 100 µM | > 100 µM |  | > 100 µM | > 100 µM | > 100 µM | > 100 µM |  | > 100 µM | > 100 µM | > 100 µM | > 100 µM | > 100 µM | > 100 µM |  |  | 
3 | CCCCCCCC(=O)N[C@H](C(=O)N[C@H](C(=O)N(C)[C@H](C(=O)N1CCC[C@H]1C(=O)N(C)[C@H](C)C(=O)NCc1ccc(OC)cc1OC)C(C)C)C(C)C)C(C)C (Octanoyl-VV[NMeV]P[dNMeA]-X29) | > 86.3 µM | 22.7 µM | > 100 µM | > 100 µM | > 100 µM | 32.8 µM |  | > 100 µM | > 26.3 µM | 46.1 µM | > 100 µM | 42.3 µM | > 85.5 µM | 60.7 µM | 23.7 µM | 30.8 µM | > 100 µM | > 100 µM
4 | O=[N+]([O-])c1cccc2nnccc12 | 90.6 µM | 34.1 µM |  | 28.3 µM |  | > 100 µM | 34.5 µM | > 100 µM | > 100 µM | > 100 µM | > 100 µM | > 100 µM | > 100 µM | 39.9 µM | 34.2 µM |  | 42.2 µM | 87.1 µM
5 | C=CC[C@@H](N)C(=O)N(C)[C@@H](C)[C@@H](O)c1ccccc1 | > 100 µM | > 100 µM |  | > 100 µM | > 100 µM | > 100 µM | > 100 µM |  |  |  | > 100 µM | > 100 µM | > 100 µM | > 100 µM | > 100 µM | > 100 µM | > 100 µM | > 100 µM
6 | CC1=NC(=Cc2cccc(Cl)c2)C(=O)N1n1c(-c2ccccc2)nc2ccccc2c1=O | 87.6 µM | > 100 µM | 54.5 µM | > 100 µM | 55.2 µM | > 100 µM | > 100 µM |  | > 100 µM |  | > 100 µM |  |  | 70.3 µM | > 100 µM | 55.2 µM | 46.5 µM | > 100 µM
7 | CC1CC(C)C(C#N)N(C)c2ccccc21 (configuration not stated) | > 100 µM | > 100 µM | > 100 µM | > 100 µM | > 100 µM | > 100 µM | > 100 µM | > 100 µM | > 100 µM | > 100 µM | > 100 µM | > 100 µM |  | > 100 µM | > 100 µM |  | > 100 µM | > 100 µM
8 | COc1ccc(CC2(O)C3CC4CCC2C4C3)cc1 (configuration not stated) | > 100 µM | > 100 µM |  | > 100 µM | > 100 µM | > 100 µM |  | > 100 µM | > 100 µM |  | > 100 µM | > 100 µM | > 100 µM | > 100 µM | > 100 µM | > 100 µM | > 100 µM | > 100 µM
9 | COc1cccc(NC(=O)CSc2nnc(-c3ccc(NC(C)=O)cc3)o2)c1 | > 100 µM | > 100 µM |  | > 100 µM | > 100 µM | > 100 µM |  | > 100 µM | > 100 µM | > 100 µM | > 100 µM | > 100 µM | > 100 µM | > 100 µM | > 100 µM | > 100 µM | > 100 µM | 
10 | CCCCCCCOc1ccc(/C=C\c2cc[n+](CCCCCCCC[n+]3ccc(/C=C\c4ccc(OCCCCCCC)cc4)cc3)cc2)cc1 | 63.7 µM | 58.7 µM |  | 34.1 µM | > 100 µM | 33.3 µM |  | 46.5 µM | > 100 µM | > 100 µM | 44.6 µM | 74.3 µM | 24.6 µM | > 100 µM | > 100 µM | > 100 µM | 17 µM | > 100 µM
11 | c1ccc2c(c1)C1CCCCCC21N1CCOCC1 (configuration not stated) | > 100 µM | > 100 µM | > 100 µM | > 100 µM | > 100 µM | > 100 µM |  | > 100 µM |  | > 100 µM | > 100 µM | > 100 µM | > 100 µM | > 100 µM | > 100 µM | > 100 µM | > 100 µM | > 100 µM
12 | O=C(NC1CCCCC1NC(c1ccccc1)(c1ccccc1)c1ccccc1)C(=O)NC1CCCCC1NC(c1ccccc1)(c1ccccc1)c1ccccc1 (configuration not stated) | > 100 µM | > 100 µM | > 100 µM | > 100 µM | > 100 µM | > 100 µM |  | > 100 µM | > 100 µM |  | > 100 µM | > 100 µM | 57.4 µM | > 100 µM |  | > 100 µM | > 100 µM | > 100 µM
13 | O=C(CSc1nnc(Cc2ccccc2)o1)Nc1ccccc1 |  | > 100 µM | > 100 µM | > 100 µM | > 100 µM | > 100 µM |  | > 100 µM | > 100 µM | > 100 µM | > 100 µM | > 100 µM | > 100 µM | > 100 µM | > 100 µM | > 100 µM | > 100 µM | 
14 | CCN1CCC(C)OP1(=O)Cc1ccccc1 (configuration not stated) | > 100 µM | > 100 µM | > 100 µM | > 100 µM | > 100 µM | > 100 µM |  | > 100 µM | > 100 µM |  | > 100 µM | > 100 µM | > 100 µM | > 100 µM | > 100 µM | > 100 µM | > 100 µM | > 100 µM
15 | O=C(NC1=C(Cl)C(=O)c2ccccc2C1=O)c1ccc(F)cc1 |  | 8.33 µM | 15.1 µM | 14.8 µM | 26.8 µM | 11.5 µM | 12.9 µM | 16.5 µM | > 100 µM | 5.4 µM | 38.9 µM |  | 12.2 µM | 7.43 µM | 2.85 µM |  | 10.6 µM | 17.3 µM
